Source: ChEMBL document CHEMBL4177611, “Discovery of aminocyclohexene analogues as selective and orally bioavailable hNav1.7 inhibitors for analgesia” (Bioorg Med Chem Lett, 2017)
Blank lines part the entries; values can stand above or below the compound they belong to. Active and inactive are the calls of the source.

What was measured:
[1] = Ratio of total drug level in iv dosed rat brain to plasma measured 2 hrs post dose; type: ADME, organism-based; details: read-out: BPR
[2] = molecular target: Sodium channel protein type 9 subunit alpha (Homo sapiens, UniProt Q15858); test: Inhibition of human Nav1.7 expressed in CHO-K1 cells at -120 mV holding potential incubated over 5 mins measured at 15 secs interval by Qpatch clamp assay; type: cell-based
in vitro [3] = details: human, Caco-2
in vitro [4] = details: human, Caco-2; remark: listed apart in the source
Cytochrome P450 1A2 = molecular target: T1, Cytochrome P450 1A2 (Homo sapiens, UniProt P05177)
T1 sequence (P05177 whole entry): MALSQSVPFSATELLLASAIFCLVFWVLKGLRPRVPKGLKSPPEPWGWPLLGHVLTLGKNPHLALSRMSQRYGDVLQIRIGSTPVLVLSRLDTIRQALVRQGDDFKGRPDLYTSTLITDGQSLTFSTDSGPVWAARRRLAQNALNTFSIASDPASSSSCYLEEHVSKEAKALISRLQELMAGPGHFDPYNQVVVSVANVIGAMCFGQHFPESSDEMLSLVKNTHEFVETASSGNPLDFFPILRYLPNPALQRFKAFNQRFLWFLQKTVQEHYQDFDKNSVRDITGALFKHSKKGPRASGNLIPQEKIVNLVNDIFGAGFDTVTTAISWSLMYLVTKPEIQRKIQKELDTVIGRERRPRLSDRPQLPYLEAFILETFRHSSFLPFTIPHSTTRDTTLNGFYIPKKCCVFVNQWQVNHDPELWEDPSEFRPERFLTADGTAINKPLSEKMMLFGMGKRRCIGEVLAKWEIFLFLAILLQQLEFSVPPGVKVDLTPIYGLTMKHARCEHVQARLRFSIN

[5] = Clearance in Sprague-Dawley rat administered as single iv bolus by LC-MS/MS analysis; type: ADME, organism-based; details: in vivo
Cytochrome P450 2C9 = Cytochrome P450 2C9 (Homo sapiens, UniProt P11712)
Cytochrome P450 2D6 = Cytochrome P450 2D6 (Homo sapiens, UniProt P10635)
[6] = Volume of distribution at steady state in Sprague-Dawley rat administered as single iv bolus by LC-MS/MS analysis; type: ADME, organism-based; details: in vivo, read-out: Vdss
[7] = AUC in Sprague-Dawley rat at 2 mg/kg administered as single dose via oral gavage by LC-MS/MS analysis; type: ADME, organism-based; details: in vivo
Cytochrome P450 2C19 = Cytochrome P450 2C19 (Homo sapiens, UniProt P33261)
[8] = Oral bioavailability in Sprague-Dawley rat at 2 mg/kg administered as single dose via gavage by LC-MS/MS analysis; type: ADME, organism-based; details: in vivo
Cytochrome P450 3A4 = Cytochrome P450 3A4 (Homo sapiens, UniProt P08684)
[9] = Oral bioavailability in Sprague-Dawley rat at 10 mg/kg administered as single dose via gavage by LC-MS/MS analysis; type: ADME, organism-based; details: in vivo
[10] = AUC in Sprague-Dawley rat at 10 mg/kg administered as single dose via oral gavage by LC-MS/MS analysis; type: ADME, organism-based; details: in vivo
Rattus norvegicus [11] = test: Antiallodynic activity in Sprague-Dawley rat spinal nerve ligation model assessed as reduction in mechanical allodynia by measuring paw withdrawal threshold at 100 mg/kg, po measured at 1 to 2 hrs post dose; type: functional, organism-based
Rattus norvegicus [12] = test: Antinociceptive activity in Sprague-Dawley rat formalin-induced nociception model assessed as inhibition of formalin-induced flinches in phase 1 at 30 mg/kg, po administered via oral gavage 60 mins before formalin challenge measured for 1 hr post dose; type: functional, organism-based
Rattus norvegicus [13] = test: Antinociceptive activity in Sprague-Dawley rat formalin-induced nociception model assessed as inhibition of formalin-induced flinches in phase 2 at 30 mg/kg, po administered via oral gavage 60 mins before formalin challenge measured for 1 hr post dose; type: functional, organism-based
Homo sapiens [14] = organism: Homo sapiens; test: Selectivity ratio of IC50 for human Nav1.4 to IC50 for human Nav1.7 expressed in CHO-K1 cells; type: cell-based
Rattus norvegicus [15] = test: Antiallodynic activity in Sprague-Dawley rat spinal nerve ligation model assessed as reduction in mechanical allodynia by measuring paw withdrawal threshold at 30 mg/kg, po measured at 1 to 2 hrs post dose; type: functional, organism-based
Homo sapiens [16] = organism: Homo sapiens; test: Selectivity ratio of IC50 for human Nav1.5 expressed in HEK293 cells to IC50 for human Nav1.7 expressed in CHO-K1 cells; type: cell-based

Chain of Cytochrome P450 2D6 (P10635 whole entry): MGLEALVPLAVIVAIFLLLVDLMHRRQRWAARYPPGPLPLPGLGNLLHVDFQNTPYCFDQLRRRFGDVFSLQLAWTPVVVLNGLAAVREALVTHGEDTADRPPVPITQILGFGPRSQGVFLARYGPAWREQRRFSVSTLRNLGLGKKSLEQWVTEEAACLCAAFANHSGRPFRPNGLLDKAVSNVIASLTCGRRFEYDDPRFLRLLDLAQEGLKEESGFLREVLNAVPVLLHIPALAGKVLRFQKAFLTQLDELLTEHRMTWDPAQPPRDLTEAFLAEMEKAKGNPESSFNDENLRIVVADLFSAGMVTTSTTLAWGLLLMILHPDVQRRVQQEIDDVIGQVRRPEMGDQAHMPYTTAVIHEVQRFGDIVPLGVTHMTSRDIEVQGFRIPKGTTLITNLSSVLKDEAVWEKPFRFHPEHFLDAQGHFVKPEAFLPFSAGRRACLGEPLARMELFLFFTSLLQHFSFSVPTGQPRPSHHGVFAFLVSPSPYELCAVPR
Chain of Cytochrome P450 2C19 (P33261 whole entry): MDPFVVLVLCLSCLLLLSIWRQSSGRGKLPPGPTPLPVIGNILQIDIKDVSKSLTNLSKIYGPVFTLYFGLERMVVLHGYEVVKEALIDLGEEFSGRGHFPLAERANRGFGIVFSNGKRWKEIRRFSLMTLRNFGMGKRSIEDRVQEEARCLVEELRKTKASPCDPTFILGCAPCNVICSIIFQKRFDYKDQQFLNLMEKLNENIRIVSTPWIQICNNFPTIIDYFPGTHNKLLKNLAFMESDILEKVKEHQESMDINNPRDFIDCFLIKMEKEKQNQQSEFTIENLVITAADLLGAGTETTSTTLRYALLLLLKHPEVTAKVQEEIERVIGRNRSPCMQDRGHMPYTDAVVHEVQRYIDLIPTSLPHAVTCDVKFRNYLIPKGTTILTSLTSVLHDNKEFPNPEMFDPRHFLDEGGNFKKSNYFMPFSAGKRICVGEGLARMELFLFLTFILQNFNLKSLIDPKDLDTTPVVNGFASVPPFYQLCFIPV
Chain of Sodium channel protein type 9 subunit alpha (Q15858 whole entry): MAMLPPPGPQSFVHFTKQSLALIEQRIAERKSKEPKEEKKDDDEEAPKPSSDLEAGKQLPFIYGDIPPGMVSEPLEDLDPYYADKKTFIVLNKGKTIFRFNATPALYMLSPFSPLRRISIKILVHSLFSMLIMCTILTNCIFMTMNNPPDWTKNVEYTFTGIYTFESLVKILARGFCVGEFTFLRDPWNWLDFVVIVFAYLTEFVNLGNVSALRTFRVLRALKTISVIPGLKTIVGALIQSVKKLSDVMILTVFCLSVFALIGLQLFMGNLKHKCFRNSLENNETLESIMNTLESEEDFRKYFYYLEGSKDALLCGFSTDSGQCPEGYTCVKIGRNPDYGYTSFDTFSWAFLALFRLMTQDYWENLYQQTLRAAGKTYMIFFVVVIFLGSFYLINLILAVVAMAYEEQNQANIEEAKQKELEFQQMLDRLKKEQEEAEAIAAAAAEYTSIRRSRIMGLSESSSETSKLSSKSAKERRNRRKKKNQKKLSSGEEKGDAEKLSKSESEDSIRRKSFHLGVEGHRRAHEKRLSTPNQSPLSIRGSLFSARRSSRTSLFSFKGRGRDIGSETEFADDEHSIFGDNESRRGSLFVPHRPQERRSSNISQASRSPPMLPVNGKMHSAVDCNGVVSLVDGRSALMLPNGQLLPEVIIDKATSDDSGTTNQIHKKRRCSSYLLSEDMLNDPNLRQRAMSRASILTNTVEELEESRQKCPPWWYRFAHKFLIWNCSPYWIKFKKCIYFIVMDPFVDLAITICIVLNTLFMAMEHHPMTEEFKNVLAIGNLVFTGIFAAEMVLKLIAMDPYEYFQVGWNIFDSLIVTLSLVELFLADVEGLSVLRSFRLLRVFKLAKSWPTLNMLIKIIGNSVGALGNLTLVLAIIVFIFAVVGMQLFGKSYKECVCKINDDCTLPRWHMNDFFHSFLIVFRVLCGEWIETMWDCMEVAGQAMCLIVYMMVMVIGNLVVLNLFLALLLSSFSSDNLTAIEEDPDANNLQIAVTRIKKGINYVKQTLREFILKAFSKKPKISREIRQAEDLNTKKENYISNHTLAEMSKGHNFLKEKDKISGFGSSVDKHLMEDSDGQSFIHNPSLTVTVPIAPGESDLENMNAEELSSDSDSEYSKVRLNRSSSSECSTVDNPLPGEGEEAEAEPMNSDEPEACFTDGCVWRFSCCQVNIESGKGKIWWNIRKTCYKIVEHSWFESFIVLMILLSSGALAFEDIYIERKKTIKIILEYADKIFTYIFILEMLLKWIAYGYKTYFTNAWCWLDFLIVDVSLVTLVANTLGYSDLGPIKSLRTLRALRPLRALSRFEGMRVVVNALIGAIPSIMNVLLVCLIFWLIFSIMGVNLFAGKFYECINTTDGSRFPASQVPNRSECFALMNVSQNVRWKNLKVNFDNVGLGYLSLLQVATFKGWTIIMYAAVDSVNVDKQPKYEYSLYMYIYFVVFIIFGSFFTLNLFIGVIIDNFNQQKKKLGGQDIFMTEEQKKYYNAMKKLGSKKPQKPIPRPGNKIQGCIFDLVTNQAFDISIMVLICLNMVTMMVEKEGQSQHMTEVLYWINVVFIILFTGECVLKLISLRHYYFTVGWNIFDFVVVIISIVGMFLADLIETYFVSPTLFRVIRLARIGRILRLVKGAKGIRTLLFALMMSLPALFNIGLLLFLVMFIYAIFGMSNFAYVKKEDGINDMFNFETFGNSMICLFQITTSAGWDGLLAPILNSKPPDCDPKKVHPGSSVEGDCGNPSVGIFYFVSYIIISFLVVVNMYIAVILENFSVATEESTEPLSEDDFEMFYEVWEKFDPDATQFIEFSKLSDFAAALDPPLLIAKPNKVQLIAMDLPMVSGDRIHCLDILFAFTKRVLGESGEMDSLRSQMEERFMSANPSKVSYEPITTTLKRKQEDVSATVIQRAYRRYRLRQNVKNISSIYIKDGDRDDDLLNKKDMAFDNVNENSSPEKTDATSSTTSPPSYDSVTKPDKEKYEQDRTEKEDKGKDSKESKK
Chain of Cytochrome P450 3A4 (P08684 whole entry): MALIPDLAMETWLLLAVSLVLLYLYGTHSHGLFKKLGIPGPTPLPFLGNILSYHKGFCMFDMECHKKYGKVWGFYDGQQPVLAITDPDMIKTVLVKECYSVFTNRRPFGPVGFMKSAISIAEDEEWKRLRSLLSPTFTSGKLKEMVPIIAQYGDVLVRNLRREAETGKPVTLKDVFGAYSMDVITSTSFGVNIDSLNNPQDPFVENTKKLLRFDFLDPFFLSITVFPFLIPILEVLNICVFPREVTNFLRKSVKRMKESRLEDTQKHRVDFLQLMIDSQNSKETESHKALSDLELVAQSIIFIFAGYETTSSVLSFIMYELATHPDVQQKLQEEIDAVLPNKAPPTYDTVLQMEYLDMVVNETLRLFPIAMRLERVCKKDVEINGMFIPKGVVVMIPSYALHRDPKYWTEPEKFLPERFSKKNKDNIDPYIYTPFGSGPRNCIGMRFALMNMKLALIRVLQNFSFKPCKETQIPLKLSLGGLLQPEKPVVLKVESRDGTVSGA
Chain of Cytochrome P450 2C9 (P11712 whole entry): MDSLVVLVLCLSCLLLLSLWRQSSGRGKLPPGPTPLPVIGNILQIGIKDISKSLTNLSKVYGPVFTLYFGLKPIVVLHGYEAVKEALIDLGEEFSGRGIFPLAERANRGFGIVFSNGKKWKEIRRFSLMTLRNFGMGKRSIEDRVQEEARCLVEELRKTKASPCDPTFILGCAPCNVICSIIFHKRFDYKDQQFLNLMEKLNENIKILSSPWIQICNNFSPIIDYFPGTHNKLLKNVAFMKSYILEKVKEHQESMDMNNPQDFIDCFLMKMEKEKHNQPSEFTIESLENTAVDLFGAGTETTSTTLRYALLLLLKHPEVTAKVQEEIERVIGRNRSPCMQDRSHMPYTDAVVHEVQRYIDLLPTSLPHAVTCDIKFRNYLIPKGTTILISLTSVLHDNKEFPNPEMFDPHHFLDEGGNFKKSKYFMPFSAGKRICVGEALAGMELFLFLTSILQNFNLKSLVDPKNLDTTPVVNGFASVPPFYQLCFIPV

- Kp at 2 h [1]: 0.08
- IC50 [2]: 94 nM
- efflux ratio at 2 h, 2 µM (in vitro [3]): 37
- Papp A→B at 2 h, 2 µM (in vitro [4]): 1.1 ×10⁻⁶ cm/s
Compound: CC(C)N[C@@H]1CCC=C(c2ccc(F)cc2)[C@H]1COc1cc(F)c(S(=O)(=O)Nc2cscn2)cc1Cl.Cl (racemic)

- IC50 [2]: 33 nM
- IC50 (Cytochrome P450 1A2): > 50 µM
- clearance [5]: 44.2 mL/min/kg
- IC50 (Cytochrome P450 2C9): 500 nM
- IC50 (Cytochrome P450 2D6): 42.6 µM
- Vd [6]: 4.24 L/kg
- AUC [7]: 0.04 µM·h
- IC50 (Cytochrome P450 2C19): 5.6 µM
- bioavailability [8]: 3%
- IC50 (Cytochrome P450 3A4): > 50 µM
Compound: Cl.N[C@@H]1CCC=C(c2ccc(F)cc2)[C@H]1CNc1cc(F)c(S(=O)(=O)Nc2nccs2)cc1Cl

- IC50 [2]: 59 nM
- clearance [5]: 26.1 mL/min/kg
- Vd [6]: 3.22 L/kg
- AUC [7]: 0.62 µM·h
- bioavailability [8]: 27%
Compound: Cl.N[C@@H]1CCC=C(c2ccc(F)cc2)[C@H]1CSc1cc(F)c(S(=O)(=O)Nc2cscn2)cc1Cl

- IC50 [2]: 200 nM
Compound: CCN[C@@H]1CCC=C(c2ccc(F)cc2)[C@H]1CNc1cc(F)c(S(=O)(=O)Nc2cscn2)cc1Cl

- IC50 [2]: 510 nM
Compound: CC(=O)N[C@@H]1CCC=C(c2ccc(F)cc2)[C@H]1COc1cc(F)c(S(=O)(=O)Nc2cscn2)cc1Cl (racemic)

- Kp at 2 h [1]: 0.04
- IC50 [2]: 170 nM
- efflux ratio at 2 h, 2 µM (in vitro [3]): 127
- Papp A→B at 2 h, 2 µM (in vitro [4]): 0.2 ×10⁻⁶ cm/s
Compound: CN[C@@H]1CCC=C(c2ccc(F)cc2)[C@H]1COc1cc(F)c(S(=O)(=O)Nc2cscn2)cc1Cl.Cl (racemic)

- Kp at 2 h [1]: 0.08
- IC50 [2]: 59 nM
- efflux ratio at 2 h, 2 µM (in vitro [3]): 70
- Papp A→B at 2 h, 2 µM (in vitro [4]): 0.4 ×10⁻⁶ cm/s
Compound: CCN[C@@H]1CCC=C(c2ccc(F)cc2)[C@H]1COc1cc(F)c(S(=O)(=O)Nc2cscn2)cc1Cl.Cl (racemic)

- bioavailability [9]: 3%
- IC50 [2]: 48 nM
- IC50 (Cytochrome P450 1A2): > 50 µM
- AUC [10]: 0.12 µM·h
- clearance [5]: 66.6 mL/min/kg
- IC50 (Cytochrome P450 2C9): 200 nM
- IC50 (Cytochrome P450 2D6): 4.5 µM
- Vd [6]: 6.21 L/kg
- IC50 (Cytochrome P450 2C19): 1.5 µM
- IC50 (Cytochrome P450 3A4): 21.6 µM
Compound: CCN[C@@H]1CCC=C(c2ccc(F)cc2)[C@H]1COc1cc(F)c(S(=O)(=O)Nc2nccs2)cc1Cl.Cl (racemic)

- IC50 [2]: 310 nM
Compound: CCN(CC)[C@@H]1CCC=C(c2ccc(F)cc2)[C@H]1COc1cc(F)c(S(=O)(=O)Nc2cscn2)cc1Cl (racemic)

- IC50 [2]: 5 nM
- IC50 (Cytochrome P450 1A2): > 50 µM
- clearance [5]: 46.5 mL/min/kg
- IC50 (Cytochrome P450 2C9): 100 nM
- IC50 (Cytochrome P450 2D6): 18 µM
- Vd [6]: 6.05 L/kg
- AUC [7]: 0.17 µM·h
- IC50 (Cytochrome P450 2C19): 3.3 µM
- bioavailability [8]: 14%
- IC50 (Cytochrome P450 3A4): 5.1 µM
Compound: Cl.N[C@@H]1CCC=C(c2ccc(F)cc2)[C@H]1CSc1cc(F)c(S(=O)(=O)Nc2nccs2)cc1Cl

- Kp at 2 h [1]: 0.6
- IC50 [2]: 14 nM
- efflux ratio at 2 h, 2 µM (in vitro [3]): 1.8
- Papp A→B at 2 h, 2 µM (in vitro [4]): 10 ×10⁻⁶ cm/s
Compound: CN(C)[C@@H]1CCC=C(c2ccc(F)cc2)[C@H]1COc1cc(F)c(S(=O)(=O)Nc2cscn2)cc1Cl.Cl (racemic)

- IC50 [2]: 770 nM
Compound: O=S(=O)(Nc1cscn1)c1cc(Cl)c(OC[C@@H]2C(c3ccc(F)cc3)=CCC[C@H]2n2cnnc2)cc1F (racemic)

- IC50 [2]: 2340 nM
Compound: O=S(=O)(Nc1cscn1)c1cc(Cl)c(OC[C@@H]2C(c3ccc(F)cc3)=CCC[C@H]2n2ccnc2)cc1F (racemic)

- IC50 [2]: 6 nM
- IC50 (Cytochrome P450 1A2): > 50 µM
- clearance [5]: 27.5 mL/min/kg
- IC50 (Cytochrome P450 2C9): 200 nM
- IC50 (Cytochrome P450 2D6): 14.1 µM
- Vd [6]: 3.07 L/kg
- AUC [7]: 0.29 µM·h
- IC50 (Cytochrome P450 2C19): 2.1 µM
- bioavailability [8]: 14%
- IC50 (Cytochrome P450 3A4): 16.5 µM
Compound: CCN[C@@H]1CCC=C(c2ccc(F)cc2)[C@H]1CNc1cc(F)c(S(=O)(=O)Nc2nccs2)cc1Cl.Cl

Compound: CCN[C@@H]1CCC=C(c2ccc(F)cc2)[C@H]1COc1cc(F)c(S(=O)(=O)Nc2cscn2)cc1Cl
- Activity (Rattus norvegicus [11]): Active
- inhibition (Rattus norvegicus [12]): inactive
- inhibition (Rattus norvegicus [13]): Active
- Ratio IC50 (Homo sapiens [14]): > 30
- Activity (Rattus norvegicus [15]): inactive
- Ratio IC50 (Homo sapiens [16]): > 30

- IC50 [2]: 1150 nM
Compound: O=S(=O)(Nc1cscn1)c1cc(Cl)c(OC[C@@H]2C(c3ccc(F)cc3)=CCC[C@H]2N2CCC2)cc1F (racemic)

- bioavailability [9]: 0.3%
- IC50 [2]: 2 nM
- IC50 (Cytochrome P450 1A2): > 50 µM
- AUC [10]: 0.03 µM·h
- clearance [5]: 29 mL/min/kg
- IC50 (Cytochrome P450 2C9): 100 nM
- IC50 (Cytochrome P450 2D6): 18 µM
- Vd [6]: 3.26 L/kg
- IC50 (Cytochrome P450 2C19): 8 µM
- IC50 (Cytochrome P450 3A4): > 50 µM
Compound: Cl.N[C@@H]1CCC=C(c2ccc(F)cc2)[C@H]1COc1cc(F)c(S(=O)(=O)Nc2nccs2)cc1Cl (racemic)

- IC50 [2]: 100 nM
Compound: CCN[C@@H]1CCC=C(c2ccc(F)cc2)[C@H]1CSc1cc(F)c(S(=O)(=O)Nc2cscn2)cc1Cl
